Columns and labels:
[1] = tested on: chorion of zebrafish eggs; assay: Uptake of fluorescein-dextran by zebrafish eggs incubated with guanidine-containing compounds (chorion permeability); type: in vivo; conditions: 40 mM compound, 1 μM of 10, 20 or 40 KD fluorescein-dextran, 24 hours, versus untreated eggs
Experimental: Zebrafish eggs were incubated in solutions that contained 1 μM of 10, 20 or 40 KD fluorescein-dextran with either 0 or 40 mM of arginine, guanidine-HCl or guanidine-thiocyanate for 24 hours.
40 zebrafish eggs were transferred into each well of 48-well plates that contained 300 μl of fresh tank system water. After the allocation of eggs, system water in each well was replaced with 300 μl of water that contained 0 or 40 μM of poly-arginine (9-arginine polymer) and 1 μM of 10 KD fluorescein-dextran. After 4 hours of incubation the eggs were examined using a MZ12 stereomicroscope (Leica, Buffalo Grove, USA), or an Axioplan 2 fluorescence microscope (ZEISS, Thornwood, N.Y., USA). Both microscopes were equipped with a DP70 digital camera (Olympus, Center Valley, Pa., USA).

[2] = tested on: rainbow trout embryos / unfertilized eggs; assay: Induction of sterility in rainbow trout by immersion of eggs in salmonids' dnd-MO-Vivo; conditions: 10 μM for 48 hours
Experimental: A dendrimeric octaguanidine with a triazine core also known as Vivo, was conjugated to salmonids' dnd-MO, 5′-[…]-3′ (SEQ ID NO. 3) and used in an immersion containing rainbow trout embryos in water, or unfertilized eggs in ovarian fluid or fertilization diluent. The ability of methods disclosed herein to induce sterility in rainbow trout was tested by administering the following:
I: Salmonids' dnd-MO-Vivo 10 μM for 48 hours, administration to fertilized eggs at the beginning of water activation (within 1 minute)
II: Salmonids' dnd-MO-Vivo 10 μM for 48 hours, administration to unfertilized eggs with the immersion medium of the ovarian fluid. The fertilization was conducted after 48 hours of incubation.
III: Salmonids' dnd-MO-Vivo 10 μM for 48 hours, administration to unfertilized eggs with the fertilization diluent that contains salt, Tris (pH 8.0), Glycine, and 5% of fish serum. The fertilization was conducted after 48 hours of incubation.
IV: Water or immersion medium only without salmonids' dnd-MO-Vivo as controls.

[3] = tested on: Atlantic salmon eggs; assay: Induction of sterility in Atlantic salmon by immersion of eggs in salmonids' dnd-MO or dnd-MO-Vivo; conditions: 10-month-old fish
Experimental: A salmonids' dnd-MO (see Example 5) or a dendrimeric octaguanidine with a triazine core also known as Vivo, which was conjugated to salmonids' dnd-MO, resulting in salmonids' dnd-MO-Vivo, was used to induce sterility in Atlantic salmon and was tested by administering the following: • I: Salmonids' dnd-MO-Vivo 10 μM for 48 hours, administration to fertilized eggs at the beginning of water activation (within 1 minute). • II: Salmonids' dnd-MO-Vivo 10 μM for 48 hours, administration to unfertilized eggs with the immersion medium of the ovarian fluid. The eggs were fertilized after 48 hours of incubation. • III: Salmonids' dnd-MO-Vivo 10 μM for 48 hours, administration to unfertilized eggs with the immersion medium that contains salt, Tris (pH 8.0), Glycine, and 5% of fish serum. The fertilization was conducted after 48 hours of incubation. • IV: Salmonids' dnd-MO 20 μM for 48 hours, administration to unfertilized eggs with the immersion medium of the ovarian fluid. The eggs were fertilized after 48 hours of incubation. • V: Salmonids' dnd-MO 20 μM for 48 hours, administration to unfertilized eggs with the immersion medium that contains salt, Tris (pH 8.0), Glycine, and 5% of fish serum. The eggs were fertilized after 48 hours of incubation. • VI: Water or immersion medium only without neither salmonids' dnd-MO-Vivo nor dnd-MO as controls.

Compound: N#CS.N=C(N)N [guanidine-thiocyanate]
- uptake of fluorescein-dextran in the eggs (green fluorescence) [1]: enhanced the uptake of fluorescein-dextran

Compound: salmonids' dnd-MO-Vivo: Vivo (dendrimeric octaguanidine with a triazine core) conjugated to salmonids' dnd-MO, 5′-CTGACTTGAACGCTCCTCCATTATC-3′ (SEQ ID NO. 3) (all phosphorodiamidate morpholino (PMO); Vivo octaguanidine dendrimer conjugated, attachment position not given here)
- infertility in rainbow trout [2]: induced infertility
- histological examination of gonadal tissue ([2]; treatments I, II and III): under-developed without advanced gonadal structure or germ cells
- gonad morphology ([2]; treatments I, II and III (fertilized eggs at water activation; unfertilized eggs in ovarian fluid or fertilization diluent)): developed into a thin filament-like tissue
- gonadal development in Atlantic salmon ([3]; dnd-MO-Vivo 10 μM for 48 hours): blocked gonadal development
- gonad morphology ([3]; dnd-MO-Vivo 10 μM for 48 hours, treatments I, II, III): developed into a thin filament-like tissue

Compound: salmonids' dnd-MO: antisense Morpholino oligomer against salmonid dead end, 5′-CTGACTTGAACGCTCCTCCATTATC-3′ (SEQ ID NO. 3) (all phosphorodiamidate morpholino (PMO))
- gonad morphology ([3]; dnd-MO 20 μM for 48 hours, treatments IV, V (unfertilized eggs in ovarian fluid or immersion medium)): developed into a thin filament-like tissue
- gonadal development in Atlantic salmon ([3]; dnd-MO 20 μM for 48 hours, unfertilized eggs): blocked gonadal development

Compound: N=C(N)NCCC[C@H](N)C(=O)O [arginine]
- uptake of fluorescein-dextran in the eggs (green fluorescence) [1]: enhanced the uptake of fluorescein-dextran

Compound: Cl.N=C(N)N [guanidine-HCl]
- uptake of fluorescein-dextran in the eggs (green fluorescence) [1]: enhanced the uptake of fluorescein-dextran
